According to US20260285850A1, “SUBSTITUTED OXAZOLIDINONES AND IMIDAZOLINONES AS HERBICIDES” (FMC CORPORATION, priority 2023, published 2026):

Legend:
Format in all cases: in vivo
[1] = tested on: green foxtail (Setaria viridis); assay: Test A postemergence application, visual injury rating 0-100
Procedure, shortened: (§1)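 Visual injury ratings (0, no effect; 100, complete control) were assigned relative to untreated plants 10 days after treatment. Test chemicals, formulated with a surfactant-containing non-phytotoxic solvent, were applied in loam-sand soil either as a directed soil spray before emergence or to emerged plants, and plants were kept in a greenhouse.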

[2] = tested on: oat, wild (wild oat, Avena fatua); assay: as above
Procedure, shortened: as §1

[3] = tested on: ryegrass, Italian (italian ryegrass, Lolium multiflorum); assay: as above
Procedure, shortened: as §1

[4] = tested on: palmer (palmer amaranth, palmer pigweed, Amaranthus palmeri); assay: as above
Procedure, shortened: as §1

kochia (Bassia scoparia) [5] = assay: as above
Procedure, shortened: as §1

[6] = tested on: horseweed (Erigeron canadensis); assay: as above
Procedure, shortened: as §1

corn (Zea mays) [7] = assay: as above
Procedure, shortened: as §1

[8] = tested on: galium (catchweed bedstraw, Galium aparine); assay: as above
Procedure, shortened: as §1

[9] = tested on: blackgrass (Alopecurus myosuroides); assay: as above
Procedure, shortened: as §1

[10] = tested on: ragweed (common ragweed, Ambrosia artemisiifolia); assay: as above
Procedure, shortened: as §1

[11] = tested on: barnyardgrass (Echinochloa crus-galli); assay: as above
Procedure, shortened: as §1

soybean (Glycine max) [12] = assay: as above
Procedure, shortened: as §1

[13] = tested on: wheat (Triticum aestivum); assay: as above
Procedure, shortened: as §1

[14] = tested on: green foxtail (Setaria viridis); assay: Test A preemergence soil spray, visual injury rating 0-100; conditions: 10 days
Procedure, shortened: as §1

[15] = tested on: oat, wild (wild oat, Avena fatua); assay: as above; conditions: 10 days
Procedure, shortened: as §1

[16] = tested on: ryegrass, Italian (italian ryegrass, Lolium multiflorum); assay: as above; conditions: 10 days
Procedure, shortened: as §1

[17] = tested on: palmer (palmer amaranth, palmer pigweed, Amaranthus palmeri); assay: as above; conditions: 10 days
Procedure, shortened: as §1

kochia (Bassia scoparia) [18] = assay: as above; conditions: 10 days
Procedure, shortened: as §1

corn (Zea mays) [19] = assay: as above; conditions: 10 days
Procedure, shortened: as §1

[20] = tested on: blackgrass (Alopecurus myosuroides); assay: as above; conditions: 10 days
Procedure, shortened: as §1

[21] = tested on: ragweed (common ragweed, Ambrosia artemisiifolia); assay: as above; conditions: 10 days
Procedure, shortened: as §1

[22] = tested on: barnyardgrass (Echinochloa crus-galli); assay: as above; conditions: 10 days
Procedure, shortened: as §1

soybean (Glycine max) [23] = assay: as above; conditions: 10 days
Procedure, shortened: as §1

[24] = tested on: wheat (Triticum aestivum); assay: as above; conditions: 10 days
Procedure, shortened: as §1

[25] = tested on: sedge, umbrella (small-flower umbrella sedge, Cyperus difformis); assay: Test B flooded paddy test, visual plant response rating 0-100; conditions: 250 g ai/ha, Flood, applied to paddy water, evaluated after 13 days
Procedure, shortened: (§2)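 Each species was raised to two leaves before flooding to a 3 cm depth and dosing the water with compound. Injury was assessed by eye after 13 days under greenhouse conditions.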

[26] = tested on: ducksalad (Heteranthera limosa); assay: as above; conditions: 250 g ai/ha, Flood, applied to paddy water, evaluated after 13 days
Procedure, shortened: as §2

rice (Oryza sativa) = assay: as above; conditions: 250 g ai/ha, Flood, applied to paddy water, evaluated after 13 days
Procedure, shortened: as §2

[27] = tested on: barnyardgrass (Echinochloa crusgalli); assay: as above; conditions: 250 g ai/ha, Flood, applied to paddy water, evaluated after 13 days
Procedure, shortened: as §2

[28] = 62 g ai/ha, postemergence, 10 days, 0 = no effect, 100 = complete control
[29] = Postemergence, 16 g ai/ha, greenhouse 10 days, 0 no effect, 100 complete control
[30] = 62 g ai/ha, 0 = no effect, 100 = complete control

In the case of `C=CC1(C(=O)NC2CC(C(=O)OC)C2)CN(c2cc(F)cc(F)c2)C(=O)O1` (stereo not shown) [Compound 172], the “Foxtail, Green plant response rating (0-100)” value [1, 28] is reported as 90, the “Foxtail, Green plant response rating (0 to 100 scale)” value [1, 29] is reported as 80 and the “Oat, Wild plant response rating (0-100)” value [2, 28] is reported as 90. For the same molecule, the “Oat, Wild plant response rating (0 to 100 scale)” value [2, 29] was 90, the “Ryegrass, Italian plant response rating (0-100)” value [3, 28] was 90 and the “Ryegrass, Italian plant response rating (0 to 100 scale)” value [3, 29] was 80. For the same molecule, the “Pigweed, Palmer plant response rating (0-100)” value [4, 28] was 60, the “Pigweed, Palmer plant response rating (0 to 100 scale)” value [4, 29] was 10 and the “Kochia plant response rating (0-100)” value (kochia (Bassia scoparia) [5]; [28]) was 90. For the same molecule, the “Kochia plant response rating (0 to 100 scale)” value (kochia (Bassia scoparia) [5]; [29]) was 90, the “Horseweed plant response rating (0-100)” value [6, 28] was 10 and the “Horseweed plant response rating (0 to 100 scale)” value [6, 29] was 0. The “Corn plant response rating (0-100)” value (corn (Zea mays) [7]; [28]) was 100, the “Corn plant response rating (0 to 100 scale)” value (corn (Zea mays) [7]; [29]) was 100 and the “Galium plant response rating (0-100)” value [8, 28] was 90. For the same molecule, the “Galium plant response rating (0 to 100 scale)” value [8, 29] was 90, the “Blackgrass plant response rating (0-100)” value [9, 28] was 90 and the “Blackgrass plant response rating (0 to 100 scale)” value [9, 29] was 90. For the same molecule, the “Ragweed plant response rating (0-100)” value [10, 28] was 20, the “Ragweed plant response rating (0 to 100 scale)” value [10, 29] was 10 and the “Barnyardgrass plant response rating (0-100)” value [11, 28] was 90. The “Barnyardgrass plant response rating (0 to 100 scale)” value [11, 29] was 80, the “Soybean plant response rating (0-100)” value (soybean (Glycine max) [12]; [28]) was 80 and the “Soybean plant response rating (0 to 100 scale)” value (soybean (Glycine max) [12]; [29]) was 80. For the same molecule, the “Wheat plant response rating (0-100)” value [13, 28] was 90, the “Wheat plant response rating (0 to 100 scale)” value [13, 29] was 90 and the “Foxtail, Green plant response rating” value ([14]; 16 g ai/ha, 0 to 100 scale) was 40. The “Foxtail, Green plant response rating (0-100)” value [14, 30] was 100, the “Oat, Wild plant response rating” value ([15]; 16 g ai/ha, 0 to 100 scale) was 30 and the “Oat, Wild plant response rating (0-100)” value [15, 30] was 90. The “Ryegrass, Italian plant response rating” value ([16]; 16 g ai/ha, 0 to 100 scale) was 40, the “Ryegrass, Italian plant response rating (0-100)” value [16, 30] was 90 and the “Pigweed, Palmer plant response rating” value ([17]; 16 g ai/ha, 0 to 100 scale) was 10. The “Pigweed, Palmer plant response rating (0-100)” value [17, 30] was 60, the “Kochia plant response rating” value (kochia (Bassia scoparia) [18]; 16 g ai/ha, 0 to 100 scale) was 0 and the “Kochia plant response rating (0-100)” value (kochia (Bassia scoparia) [18]; [30]) was 100. For the same molecule, the “Corn plant response rating” value (corn (Zea mays) [19]; 16 g ai/ha, 0 to 100 scale) was 80, the “Corn plant response rating (0-100)” value (corn (Zea mays) [19]; [30]) was 90 and the “Blackgrass plant response rating” value ([20]; 16 g ai/ha, 0 to 100 scale) was 50. For the same molecule, the “Blackgrass plant response rating (0-100)” value [20, 30] was 90, the “Ragweed plant response rating” value ([21]; 16 g ai/ha, 0 to 100 scale) was 0 and the “Ragweed plant response rating (0-100)” value [21, 30] was 0. For the same molecule, the “Barnyardgrass plant response rating” value ([22]; 16 g ai/ha, 0 to 100 scale) was 0, the “Barnyardgrass plant response rating (0-100)” value [22, 30] was 90 and the “Soybean plant response rating” value (soybean (Glycine max) [23]; 16 g ai/ha, 0 to 100 scale) was 0. For the same molecule, the “Soybean plant response rating (0-100)” value (soybean (Glycine max) [23]; [30]) was 70, the “Wheat plant response rating” value ([24]; 16 g ai/ha, 0 to 100 scale) was 90 and the “Wheat plant response rating (0-100)” value [24, 30] was 100. The “Plant response rating, Sedge, Umbrella (0 to 100 scale, 0 is no effect and 100 is complete control)” value [25] was 100, the “Plant response rating, Ducksalad (0 to 100 scale, 0 is no effect and 100 is complete control)” value [26] was 80 and the “Plant response rating, Rice (0 to 100 scale, 0 is no effect and 100 is complete control)” value (rice (Oryza sativa)) was 70. The “Plant response rating, Barnyardgrass (0 to 100 scale, 0 is no effect and 100 is complete control)” value [27] was 95.
